Measurements taken from ChEMBL document CHEMBL1201862, “PubChem BioAssay data set” (2004).
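A five-concentration, 48-hour dose response in 96-well plates underlies each endpoint, interpolated linearly between surrounding concentrations. GI50 = concentration required for 50% inhibition of growth.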 Activity calls are given as the source filed them. Cut-off read from the data, not from the text of the source: active = GI50 up to about 1.1 µM and inactive = higher.

What was measured:
Assay in all cases: NCI anticancer screen, dose series, 48 h
[1] = system: MOLT-4
[2] = system: K562
[3] = system: RPMI-8226
[4] = system: NCI-H522
[5] = system: 786-0
[6] = system: TK-10
[7] = system: IGROV-1
[8] = system: SF-295
[9] = system: M19-MEL
[10] = system: SK-OV-3
[11] = system: SK-MEL-2
[12] = system: DLD-1
[13] = system: KM12
[14] = system: HCT-15
[15] = system: HOP-18
[16] = system: SK-MEL-5
[17] = system: OVCAR-5
[18] = system: NCI-H23
[19] = system: SNB-75
[20] = system: UACC-62
[21] = system: UACC-257
[22] = system: DMS-273
[23] = system: LOX IMVI
[24] = system: OVCAR-4
[25] = system: COLO 205
[26] = system: SW-620
[27] = system: SK-MEL-28
[28] = system: LXFL 529
[29] = system: SF-539
[30] = system: U-251
[31] = system: HT-29
[32] = system: A549
[33] = system: OVCAR-8
[34] = system: M14
[35] = system: CCRF-CEM
[36] = system: CAKI-1
[37] = system: DMS-114
[38] = system: UO-31
[39] = system: RXF 393
[40] = system: SN12C
[41] = system: SR
[42] = system: HL-60
[43] = system: HCT-116
[44] = system: NCI-H460
[45] = system: Malme-3M
[46] = system: ACHN
[47] = system: NCI-H226
[48] = system: HOP-62
[49] = system: SF-268
[50] = system: EKVX
[51] = system: A498
[52] = system: KM-20L2
[53] = system: T47D
[54] = system: MDA-MB-231
[55] = system: SNB-78
[56] = system: NCI/ADR-RES
[57] = system: HOP-92
[58] = system: MDA-MB-435
[59] = system: MCF7
[60] = system: OVCAR-3
[61] = system: HCC 2998
[62] = system: BT-549
[63] = system: SNB-19
[64] = system: Hs-578T
[65] = system: MDA-N
[66] = system: DU-145

Q: Which GI50 [1] does the source give for `[N-]=[N+]=Nc1cc(=O)n(-c2ccccc2)c2ccccc12` here?
A: > 100000 nM (inactive)

Q: And the GI50 [2]?
A: > 100000 nM (inactive)

Q: And the GI50 [3]?
A: > 100000 nM (inactive)

Q: What about the GI50 [4] of the same compound?
A: > 100000 nM (inactive)

Q: And the GI50 [5]?
A: > 100000 nM (inactive)

Q: What about the GI50 [6] of the same compound?
A: > 100000 nM (inactive)

Q: What about the GI50 [7] of the same compound?
A: > 100000 nM (inactive)

Q: What about the GI50 [8] of the same compound?
A: > 100000 nM (inactive)

Q: What about the GI50 [9] of the same compound?
A: > 100000 nM (inactive)

Q: And the GI50 [10]?
A: > 100000 nM (inactive)

Q: What about the GI50 [11] of the same compound?
A: > 100000 nM (inactive)

Q: And the GI50 [12]?
A: > 100000 nM (inactive)

Q: What about the GI50 [13] of the same compound?
A: > 100000 nM (inactive)

Q: What about the GI50 [14] of the same compound?
A: > 100000 nM

Q: And the GI50 [15]?
A: > 100000 nM (inactive)

Q: And the GI50 [16]?
A: > 100000 nM (inactive)

Q: What about the GI50 [17] of the same compound?
A: > 100000 nM (inactive)

Q: And the GI50 [18]?
A: > 100000 nM (inactive)

Q: What about the GI50 [19] of the same compound?
A: 70800 nM (inactive)

Q: What about the GI50 [20] of the same compound?
A: > 100000 nM (inactive)

Q: What about the GI50 [21] of the same compound?
A: > 100000 nM (inactive)

Q: What about the GI50 [22] of the same compound?
A: > 100000 nM (inactive)

Q: What about the GI50 [23] of the same compound?
A: > 100000 nM (inactive)

Q: And the GI50 [24]?
A: > 100000 nM (inactive)

Q: And the GI50 [25]?
A: > 100000 nM (inactive)

Q: And the GI50 [26]?
A: > 100000 nM (inactive)

Q: And the GI50 [27]?
A: > 100000 nM (inactive)

Q: And the GI50 [28]?
A: > 100000 nM (inactive)

Q: And the GI50 [29]?
A: > 100000 nM (inactive)

Q: And the GI50 [30]?
A: > 100000 nM (inactive)

Q: What about the GI50 [31] of the same compound?
A: > 100000 nM (inactive)

Q: What about the GI50 [32] of the same compound?
A: > 100000 nM (inactive)

Q: What about the GI50 [33] of the same compound?
A: > 100000 nM (inactive)

Q: What about the GI50 [34] of the same compound?
A: > 100000 nM (inactive)

Q: What about the GI50 [35] of the same compound?
A: > 100000 nM (inactive)

Q: What about the GI50 [36] of the same compound?
A: > 100000 nM (inactive)

Q: And the GI50 [37]?
A: > 100000 nM (inactive)

Q: And the GI50 [38]?
A: > 100000 nM (inactive)

Q: And the GI50 [39]?
A: 63100 nM (inactive)

Q: And the GI50 [40]?
A: > 100000 nM (inactive)

Q: What about the GI50 [41] of the same compound?
A: > 100000 nM (inactive)

Q: And the GI50 [42]?
A: > 100000 nM (inactive)

Q: What about the GI50 [43] of the same compound?
A: > 100000 nM (inactive)

Q: What about the GI50 [44] of the same compound?
A: > 100000 nM (inactive)

Q: And the GI50 [45]?
A: > 100000 nM (inactive)

Q: What about the GI50 [46] of the same compound?
A: > 100000 nM (inactive)

Q: And the GI50 [47]?
A: > 100000 nM (inactive)

Q: And the GI50 [48]?
A: > 100000 nM (inactive)

Q: And the GI50 [49]?
A: > 100000 nM (inactive)

Q: With `CC(=O)c1cccc(NC2C(N)C(NC(=O)N(C)C)(C(C)O)C(C)(O)C2(O)COC(=O)c2c(C)cccc2O)c1` (stereo unspecified) as the compound, how does the GI50 [1] read?
A: < 1 nM (active)

Q: And the GI50 [50]?
A: < 1 nM (active)

Q: And the GI50 [2]?
A: < 1 nM (active)

Q: What about the GI50 [3] of the same compound?
A: < 1 nM (active)

Q: What about the GI50 [4] of the same compound?
A: 10 nM (active)

Q: And the GI50 [51]?
A: < 1 nM (active)

Q: And the GI50 [5]?
A: < 1 nM (active)

Q: And the GI50 [6]?
A: < 1 nM (active)

Q: And the GI50 [7]?
A: < 1 nM (active)

Q: What about the GI50 [52] of the same compound?
A: 10 nM (active)

Q: What about the GI50 [53] of the same compound?
A: < 1 nM (active)

Q: And the GI50 [8]?
A: 1.07 nM (active)

Q: What about the GI50 [9] of the same compound?
A: 10 nM (active)

Q: And the GI50 [10]?
A: < 1 nM (active)

Q: And the GI50 [11]?
A: 10 nM (active)

Q: What about the GI50 [54] of the same compound?
A: 1.87 nM (active)

Q: What about the GI50 [55] of the same compound?
A: 10 nM (active)

Q: And the GI50 [56]?
A: 13.4 nM (active)

Q: And the GI50 [57]?
A: < 1 nM (active)

Q: And the GI50 [13]?
A: < 1 nM (active)

Q: What about the GI50 [14] of the same compound?
A: 2.96 nM

Q: And the GI50 [16]?
A: < 1 nM (active)

Q: And the GI50 [17]?
A: < 1 nM (active)

Q: And the GI50 [18]?
A: < 1 nM (active)

Q: What about the GI50 [19] of the same compound?
A: 94.8 nM (active)

Q: What about the GI50 [20] of the same compound?
A: 10 nM (active)

Q: What about the GI50 [21] of the same compound?
A: 1.13 nM (active)

Q: And the GI50 [58]?
A: < 1 nM (active)

Q: What about the GI50 [59] of the same compound?
A: < 1 nM (active)

Q: And the GI50 [60]?
A: 10 nM (active)

Q: What about the GI50 [61] of the same compound?
A: < 1 nM (active)

Q: And the GI50 [24]?
A: < 1 nM (active)

Q: What about the GI50 [25] of the same compound?
A: < 1 nM (active)

Q: What about the GI50 [26] of the same compound?
A: < 1 nM (active)

Q: What about the GI50 [27] of the same compound?
A: < 1 nM (active)

Q: What about the GI50 [28] of the same compound?
A: 10 nM (active)

Q: And the GI50 [29]?
A: < 1 nM (active)

Q: What about the GI50 [30] of the same compound?
A: < 1 nM (active)

Q: What about the GI50 [31] of the same compound?
A: < 1 nM (active)

Q: And the GI50 [32]?
A: < 1 nM (active)

Q: What about the GI50 [33] of the same compound?
A: < 1 nM (active)

Q: And the GI50 [34]?
A: 11.8 nM (active)

Q: What about the GI50 [35] of the same compound?
A: < 1 nM (active)

Q: What about the GI50 [36] of the same compound?
A: < 1 nM (active)

Q: What about the GI50 [37] of the same compound?
A: 10 nM (active)

Q: What about the GI50 [62] of the same compound?
A: < 1 nM (active)

Q: And the GI50 [38]?
A: 1.91 nM (active)

Q: And the GI50 [39]?
A: < 1 nM (active)

Q: What about the GI50 [40] of the same compound?
A: < 1 nM (active)

Q: And the GI50 [41]?
A: < 1 nM (active)

Q: And the GI50 [42]?
A: < 1 nM (active)

Q: And the GI50 [43]?
A: < 1 nM (active)

Q: And the GI50 [63]?
A: < 1 nM (active)

Q: What about the GI50 [64] of the same compound?
A: < 1 nM (active)

Q: What about the GI50 [65] of the same compound?
A: < 1 nM (active)

Q: What about the GI50 [44] of the same compound?
A: < 1 nM (active)

Q: And the GI50 [45]?
A: < 1 nM (active)

Q: What about the GI50 [46] of the same compound?
A: < 1 nM (active)

Q: What about the GI50 [47] of the same compound?
A: < 1 nM (active)

Q: What about the GI50 [48] of the same compound?
A: < 1 nM (active)

Q: And the GI50 [66]?
A: < 1 nM (active)

Q: And the GI50 [49]?
A: 26.3 nM (active)
